# Test results: US11999727B2 (Tango Therapeutics, Inc., priority 2020, dated 2024)
# How the values were obtained:
# PRMT5 [1] = biological target: T1, PRMT5 (Homo sapiens, UniProt O14744); assay: PRMT5 biochemical IC50 assay with SAM as cofactor; settings: PRMT5, SAM as cofactor; read-out: SAM IC50
# T1 construct: purchased Viva (custom protein)
# PRMT5 [2] = biological target: T1, PRMT5; assay: PRMT5 biochemical IC50 assay with no cofactor; settings: PRMT5, no cofactor; read-out: No Cofactor/rel IC50
# Description: Table 1 indicates IC50 values (μM) against PRMT5 for exemplary compounds in the presence of SAM as cofactor, with no cofactor, and with MTA as cofactor, respectively (columns 4-6). […] Ki values can be calculated from the IC50 values as described in the Examples section. As detailed in the Examples section, for the assay performed in the presence of SAM, IC50=Ki×1.5 (Ki=IC50/1.5).
# PRMT5 [3] = biological target: T1, PRMT5; assay: PRMT5 biochemical IC50 assay with MTA as cofactor; settings: PRMT5, MTA as cofactor; read-out: MTA IC50
# [4] = tested on: HAP1 MTAP-intact cell line; assay: SDMA in-cell western assay, HAP1 MTAP-intact; type: cell-based; settings: Homo sapiens, HAP1, SDMA in-cell western, HAP1 MTAP-intact; read-out: MTAP HAP1 intact IC50
# Summary of the method: (§1)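 IC50 values come from SDMA signal quantified by in-cell western in two HAP1 lines, one with native MTAP levels and one lacking MTAP.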
# [5] = tested on: HAP1 MTAP-deleted cell line; assay: SDMA in-cell western assay, HAP1 MTAP-deleted; type: cell-based; settings: for IC50: Homo sapiens, HAP1, SDMA in-cell western, HAP1 MTAP-deleted, read-out: HAP1 MTAP deleted IC50; for MTAP intact/deleted ratio: IC50 ratio HAP1 MTAP-intact / HAP1 MTAP-deleted, SDMA in-cell western
# Summary of the method: as §1
# [6] = tested on: HAP1 MTAP-deleted cell line; assay: Viability assay, MTAP-deleted cell line; type: cell-based; settings: Homo sapiens, HAP1, viability assay, HAP1 MTAP-deleted; read-out: HAP1 MTAP deleted viability
# Description: Table 1 additionally indicates IC50 values in a viability assay for the MTAP-deleted cell line (column 10), indicating the effect of treatment with compound on cell survival.
# T1 sequence (O14744 whole entry): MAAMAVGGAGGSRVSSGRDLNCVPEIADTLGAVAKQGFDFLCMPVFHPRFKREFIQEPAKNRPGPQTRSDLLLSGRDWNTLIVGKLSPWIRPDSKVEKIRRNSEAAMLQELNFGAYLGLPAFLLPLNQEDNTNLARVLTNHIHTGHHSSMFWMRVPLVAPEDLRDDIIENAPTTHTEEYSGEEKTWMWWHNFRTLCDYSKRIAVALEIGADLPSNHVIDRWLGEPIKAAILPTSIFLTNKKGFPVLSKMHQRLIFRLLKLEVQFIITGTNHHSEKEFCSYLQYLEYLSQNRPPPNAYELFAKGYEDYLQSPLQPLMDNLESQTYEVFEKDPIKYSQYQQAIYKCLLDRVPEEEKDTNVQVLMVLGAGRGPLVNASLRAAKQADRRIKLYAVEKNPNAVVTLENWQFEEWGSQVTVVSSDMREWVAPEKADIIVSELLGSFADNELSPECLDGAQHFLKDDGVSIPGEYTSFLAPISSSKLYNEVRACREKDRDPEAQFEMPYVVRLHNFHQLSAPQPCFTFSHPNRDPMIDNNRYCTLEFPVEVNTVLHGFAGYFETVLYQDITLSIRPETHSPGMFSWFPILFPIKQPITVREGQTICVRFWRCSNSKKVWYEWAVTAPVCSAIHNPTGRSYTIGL
# T1 sequence (Q9BQA1 whole entry partner): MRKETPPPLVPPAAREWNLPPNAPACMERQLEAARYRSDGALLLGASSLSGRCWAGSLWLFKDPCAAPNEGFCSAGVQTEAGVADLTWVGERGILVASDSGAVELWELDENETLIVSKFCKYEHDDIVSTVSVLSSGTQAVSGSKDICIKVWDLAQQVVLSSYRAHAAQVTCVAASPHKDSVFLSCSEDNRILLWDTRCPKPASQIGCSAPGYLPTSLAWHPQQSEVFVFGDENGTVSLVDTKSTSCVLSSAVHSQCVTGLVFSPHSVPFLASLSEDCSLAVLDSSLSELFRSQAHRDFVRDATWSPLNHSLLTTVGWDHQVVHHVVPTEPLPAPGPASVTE
structure (smiles),measurement,setting,value
"CCc1cc(NC(=O)C(=O)N2C[C@H](C)CC[C@H]2c2ccc(C(N)=O)s2)cnc1N (single isomer, unassigned) [Compound 838]",IC50,PRMT5 [1],0.05 to 0.5 µM
same,IC50,PRMT5 [2],< 0.05 µM
same,IC50,PRMT5 [3],< 0.05 µM
same,IC50,[4],0.1 to 1 µM
same,IC50,[5],< 0.1 µM
same,MTAP intact/deleted ratio,[5],A (an IC50 ratio greater than or equal to 10 fold)
same,IC50,[6],< 1 µM
"CNC(=O)c1ccc([C@H]2CC[C@H](C)CN2C(=O)C(=O)Nc2cncc(C(N)=O)c2)s1 (single isomer, unassigned) [Compound 839]",IC50,PRMT5 [1],> 0.5 µM
same,IC50,PRMT5 [2],> 0.5 µM
same,IC50,PRMT5 [3],> 0.5 µM
same,IC50,[4],> 1 µM
same,IC50,[5],> 1 µM
same,MTAP intact/deleted ratio,[5],B (an IC50 ratio greater than or equal to 3 fold but lower than 10 fold)
same,IC50,[6],> 10 µM
"CCc1cc(NC(=O)C(=O)N2C[C@@H](C)CC[C@@H]2c2ccc(C(=O)NC)s2)cnc1N (single isomer, unassigned) [Compound 840]",IC50,PRMT5 [1],0.05 to 0.5 µM
same,IC50,PRMT5 [2],< 0.05 µM
same,IC50,PRMT5 [3],< 0.05 µM
same,IC50,[4],0.1 to 1 µM
same,IC50,[5],< 0.1 µM
same,MTAP intact/deleted ratio,[5],A (an IC50 ratio greater than or equal to 10 fold)
same,IC50,[6],< 1 µM
"CCc1cc(NC(=O)C(=O)N2C[C@H](C)CC[C@H]2c2ccc(-c3cncs3)cc2)cnc1N (single isomer, unassigned) [Compound 841, N-(6-amino-5-ethylpyridin-3-yl)-2-(5-methyl-2-(4-(thiazol-5-yl)phenyl)piperidin-1-yl)-2-oxoacetamide]",IC50,PRMT5 [1],0.05 to 0.5 µM
same,IC50,PRMT5 [2],< 0.05 µM
same,IC50,PRMT5 [3],< 0.05 µM
same,IC50,[4],0.1 to 1 µM
same,IC50,[5],< 0.1 µM
same,MTAP intact/deleted ratio,[5],A (an IC50 ratio greater than or equal to 10 fold)
same,IC50,[6],< 1 µM
"COc1ncc(NC(=O)C(=O)N2C[C@@H](C)CC[C@@H]2c2ccc(-c3cncs3)cc2)cc1C(N)=O (single isomer, unassigned) [Compound 842, 2-methoxy-5-(2-(5-methyl-2-(4-(thiazol-5-yl)phenyl)piperidin-1-yl)-2-oxoacetamido)nicotinamide]",IC50,PRMT5 [1],> 0.5 µM
same,IC50,PRMT5 [2],> 0.5 µM
same,IC50,PRMT5 [3],> 0.5 µM
same,IC50,[4],> 1 µM
same,IC50,[5],> 1 µM
same,MTAP intact/deleted ratio,[5],B (an IC50 ratio greater than or equal to 3 fold but lower than 10 fold)
same,IC50,[6],> 10 µM
"CNC(=O)c1ccc([C@@H]2CC[C@@H](C)CN2C(=O)C(=O)Nc2cnc(OC)c(C(N)=O)c2)s1 (single isomer, unassigned) [Compound 843]",IC50,PRMT5 [1],> 0.5 µM
same,IC50,PRMT5 [2],> 0.5 µM
same,IC50,PRMT5 [3],> 0.5 µM
same,IC50,[4],> 1 µM
same,IC50,[5],> 1 µM
same,MTAP intact/deleted ratio,[5],B (an IC50 ratio greater than or equal to 3 fold but lower than 10 fold)
same,IC50,[6],> 10 µM
"COc1ncc(NC(=O)C(=O)N2C[C@H](C)CC[C@H]2c2ccc(C(N)=O)s2)cc1C(N)=O (single isomer, unassigned) [Compound 844]",IC50,PRMT5 [1],> 0.5 µM
same,IC50,PRMT5 [2],> 0.5 µM
same,IC50,PRMT5 [3],> 0.5 µM
same,IC50,[4],> 1 µM
same,IC50,[5],> 1 µM
same,MTAP intact/deleted ratio,[5],C (an IC50 ratio of less than 3 fold)
same,IC50,[6],> 10 µM
"CCc1cc(NC(=O)C(=O)N2C[C@@H](C)CC[C@@H]2c2ccc(C(N)=O)s2)cnc1N (single isomer, unassigned) [Compound 845]",IC50,PRMT5 [1],> 0.5 µM
same,IC50,PRMT5 [2],> 0.5 µM
same,IC50,PRMT5 [3],> 0.5 µM
same,IC50,[4],> 1 µM
same,IC50,[5],> 1 µM
same,MTAP intact/deleted ratio,[5],B (an IC50 ratio greater than or equal to 3 fold but lower than 10 fold)
same,IC50,[6],> 10 µM
"Cc1cc(NC(=O)C(=O)N2C[C@H](C)CC[C@H]2c2cc(F)c(F)c(Cl)c2)cnc1N (single isomer, unassigned) [Compound 847]",IC50,PRMT5 [1],> 0.5 µM
same,IC50,PRMT5 [2],> 0.5 µM
same,IC50,PRMT5 [3],> 0.5 µM
same,IC50,[4],> 1 µM
same,IC50,[5],> 1 µM
same,MTAP intact/deleted ratio,[5],C (an IC50 ratio of less than 3 fold)
same,IC50,[6],> 10 µM
"Cc1cc(NC(=O)C(=O)N2C[C@H](C)CC[C@H]2c2ccc(N)nc2)cnc1N (single isomer, unassigned) [Compound 848]",IC50,PRMT5 [1],0.05 to 0.5 µM
same,IC50,PRMT5 [2],< 0.05 µM
same,IC50,PRMT5 [3],< 0.05 µM
same,IC50,[4],0.1 to 1 µM
same,IC50,[5],< 0.1 µM
same,MTAP intact/deleted ratio,[5],A (an IC50 ratio greater than or equal to 10 fold)
same,IC50,[6],< 1 µM
"CNC(=O)c1ccc([C@@H]2CC[C@@H](C)CN2C(=O)C(=O)Nc2cnc(N)c(C)c2)s1 (single isomer, unassigned) [Compound 849]",IC50,PRMT5 [1],> 0.5 µM
same,IC50,PRMT5 [2],> 0.5 µM
same,IC50,PRMT5 [3],> 0.5 µM
same,IC50,[4],> 1 µM
same,IC50,[5],> 1 µM
same,MTAP intact/deleted ratio,[5],C (an IC50 ratio of less than 3 fold)
same,IC50,[6],> 10 µM
"COc1ncc(NC(=O)C(=O)N2C[C@@H](C)CC[C@@H]2c2ccc(NS(C)(=O)=O)cc2)cc1C(N)=O (single isomer, unassigned) [Compound 850]",IC50,PRMT5 [1],> 0.5 µM
same,IC50,PRMT5 [2],> 0.5 µM
same,IC50,PRMT5 [3],> 0.5 µM
same,IC50,[4],> 1 µM
same,IC50,[5],> 1 µM
same,MTAP intact/deleted ratio,[5],C (an IC50 ratio of less than 3 fold)
same,IC50,[6],> 10 µM
"CCc1cc(NC(=O)C(=O)N2C[C@@H](C)CC[C@@H]2c2ccc(N)nc2)cnc1N (single isomer, unassigned) [Compound 851]",IC50,PRMT5 [1],0.05 to 0.5 µM
same,IC50,PRMT5 [2],< 0.05 µM
same,IC50,PRMT5 [3],< 0.05 µM
same,IC50,[4],0.1 to 1 µM
same,IC50,[5],< 0.1 µM
same,MTAP intact/deleted ratio,[5],A (an IC50 ratio greater than or equal to 10 fold)
same,IC50,[6],< 1 µM
"CNc1nc2cc([C@H]3CC[C@H](C)CN3C(=O)C(=O)Nc3cnc(N)c(C)c3)ccc2s1 (single isomer, unassigned) [Compound 852]",IC50,PRMT5 [1],0.05 to 0.5 µM
same,IC50,PRMT5 [2],< 0.05 µM
same,IC50,PRMT5 [3],< 0.05 µM
same,IC50,[4],0.1 to 1 µM
same,IC50,[5],< 0.1 µM
same,MTAP intact/deleted ratio,[5],A (an IC50 ratio greater than or equal to 10 fold)
same,IC50,[6],< 1 µM
"CNc1nc2cc([C@@H]3CC[C@@H](C)CN3C(=O)C(=O)Nc3cnc(N)c(C)c3)ccc2s1 (single isomer, unassigned) [Compound 855]",IC50,PRMT5 [1],> 0.5 µM
same,IC50,PRMT5 [2],> 0.5 µM
same,IC50,PRMT5 [3],> 0.5 µM
same,IC50,[4],> 1 µM
same,IC50,[5],> 1 µM
same,MTAP intact/deleted ratio,[5],C (an IC50 ratio of less than 3 fold)
same,IC50,[6],> 10 µM
"CCc1cc(NC(=O)C(=O)N2C[C@H](C)CC[C@H]2c2ccc(N)nc2)cnc1N (single isomer, unassigned) [Compound 856]",IC50,PRMT5 [1],> 0.5 µM
same,IC50,PRMT5 [2],> 0.5 µM
same,IC50,PRMT5 [3],> 0.5 µM
same,IC50,[4],> 1 µM
same,IC50,[5],> 1 µM
same,MTAP intact/deleted ratio,[5],B (an IC50 ratio greater than or equal to 3 fold but lower than 10 fold)
same,IC50,[6],> 10 µM
"Cc1cc(NC(=O)C(=O)N2C[C@@H](C)CC[C@@H]2c2cc(F)c(F)c(Cl)c2)cnc1N (single isomer, unassigned) [Compound 857]",IC50,PRMT5 [1],0.05 to 0.5 µM
same,IC50,PRMT5 [2],0.05 to 0.5 µM
same,IC50,PRMT5 [3],< 0.05 µM
same,IC50,[4],> 1 µM
same,IC50,[5],< 0.1 µM
same,MTAP intact/deleted ratio,[5],A (an IC50 ratio greater than or equal to 10 fold)
same,IC50,[6],1 to 10 µM
"COc1ncc(NC(=O)C(=O)N2C[C@H](C)CC[C@H]2c2ccc(NS(C)(=O)=O)cc2)cc1C(N)=O (single isomer, unassigned) [Compound 858]",IC50,PRMT5 [1],0.05 to 0.5 µM
same,IC50,PRMT5 [2],< 0.05 µM
same,IC50,PRMT5 [3],< 0.05 µM
same,IC50,[4],> 1 µM
same,IC50,[5],< 0.1 µM
same,MTAP intact/deleted ratio,[5],A (an IC50 ratio greater than or equal to 10 fold)
same,IC50,[6],1 to 10 µM
"CNC(=O)c1ccc([C@H]2CC[C@H](C)CN2C(=O)C(=O)Nc2cnc(N)c(C)c2)s1 (single isomer, unassigned) [Compound 859]",IC50,PRMT5 [1],0.05 to 0.5 µM
same,IC50,PRMT5 [2],< 0.05 µM
same,IC50,PRMT5 [3],< 0.05 µM
same,IC50,[4],0.1 to 1 µM
same,IC50,[5],< 0.1 µM
same,MTAP intact/deleted ratio,[5],A (an IC50 ratio greater than or equal to 10 fold)
same,IC50,[6],< 1 µM
"Cc1cc(NC(=O)C(=O)N2C[C@@H](C)CC[C@@H]2c2ccc(N)nc2)cnc1N (single isomer, unassigned) [Compound 860]",IC50,PRMT5 [1],> 0.5 µM
same,IC50,PRMT5 [2],> 0.5 µM
same,IC50,PRMT5 [3],> 0.5 µM
same,IC50,[4],> 1 µM
same,IC50,[5],> 1 µM
same,MTAP intact/deleted ratio,[5],B (an IC50 ratio greater than or equal to 3 fold but lower than 10 fold)
same,IC50,[6],> 10 µM
"CNc1nc2cc([C@H]3CC[C@H](C)CN3C(=O)C(=O)Nc3cncc(C(N)=O)c3)ccc2s1 (single isomer, unassigned) [Compound 862]",IC50,PRMT5 [1],> 0.5 µM
same,IC50,PRMT5 [2],> 0.5 µM
same,IC50,PRMT5 [3],> 0.5 µM
same,IC50,[4],> 1 µM
same,IC50,[5],> 1 µM
same,MTAP intact/deleted ratio,[5],B (an IC50 ratio greater than or equal to 3 fold but lower than 10 fold)
same,IC50,[6],> 10 µM
"CNc1nc2cc([C@H]3CC[C@H](C)CN3C(=O)C(=O)Nc3cnc(OC)c(C(N)=O)c3)ccc2s1 (single isomer, unassigned) [Compound 863]",IC50,PRMT5 [1],0.05 to 0.5 µM
same,IC50,PRMT5 [2],< 0.05 µM
same,IC50,PRMT5 [3],< 0.05 µM
same,IC50,[4],> 1 µM
same,IC50,[5],< 0.1 µM
same,MTAP intact/deleted ratio,[5],A (an IC50 ratio greater than or equal to 10 fold)
same,IC50,[6],< 1 µM
